Data set [1] is described as follows: Partition coefficient (logP). The data set is classed as physicochemical. Conditions: octanol/water.
For data set [2], the target named is T1, ATP-dependent translocase ABCB1 (Mus musculus, UniProt P06795). As to the kind of experiment: Inhibition of P-glycoprotein, mouse L-mdr1b expressed in LLC-PK1 epithelial cells using calcein-AM polarisation assay. The data set is classed as functional, cell-based.
The target of data set [3] is T2, ATP-dependent translocase ABCB1 (Homo sapiens, UniProt P08183). As to the kind of experiment: Inhibition of P-gp was determined using rhodamine-assay in human CaCo-2 cells. The class given is functional, cell-based. The arrangement: concentration or dose not given beside the values.
T2 sequence (P08183 whole entry): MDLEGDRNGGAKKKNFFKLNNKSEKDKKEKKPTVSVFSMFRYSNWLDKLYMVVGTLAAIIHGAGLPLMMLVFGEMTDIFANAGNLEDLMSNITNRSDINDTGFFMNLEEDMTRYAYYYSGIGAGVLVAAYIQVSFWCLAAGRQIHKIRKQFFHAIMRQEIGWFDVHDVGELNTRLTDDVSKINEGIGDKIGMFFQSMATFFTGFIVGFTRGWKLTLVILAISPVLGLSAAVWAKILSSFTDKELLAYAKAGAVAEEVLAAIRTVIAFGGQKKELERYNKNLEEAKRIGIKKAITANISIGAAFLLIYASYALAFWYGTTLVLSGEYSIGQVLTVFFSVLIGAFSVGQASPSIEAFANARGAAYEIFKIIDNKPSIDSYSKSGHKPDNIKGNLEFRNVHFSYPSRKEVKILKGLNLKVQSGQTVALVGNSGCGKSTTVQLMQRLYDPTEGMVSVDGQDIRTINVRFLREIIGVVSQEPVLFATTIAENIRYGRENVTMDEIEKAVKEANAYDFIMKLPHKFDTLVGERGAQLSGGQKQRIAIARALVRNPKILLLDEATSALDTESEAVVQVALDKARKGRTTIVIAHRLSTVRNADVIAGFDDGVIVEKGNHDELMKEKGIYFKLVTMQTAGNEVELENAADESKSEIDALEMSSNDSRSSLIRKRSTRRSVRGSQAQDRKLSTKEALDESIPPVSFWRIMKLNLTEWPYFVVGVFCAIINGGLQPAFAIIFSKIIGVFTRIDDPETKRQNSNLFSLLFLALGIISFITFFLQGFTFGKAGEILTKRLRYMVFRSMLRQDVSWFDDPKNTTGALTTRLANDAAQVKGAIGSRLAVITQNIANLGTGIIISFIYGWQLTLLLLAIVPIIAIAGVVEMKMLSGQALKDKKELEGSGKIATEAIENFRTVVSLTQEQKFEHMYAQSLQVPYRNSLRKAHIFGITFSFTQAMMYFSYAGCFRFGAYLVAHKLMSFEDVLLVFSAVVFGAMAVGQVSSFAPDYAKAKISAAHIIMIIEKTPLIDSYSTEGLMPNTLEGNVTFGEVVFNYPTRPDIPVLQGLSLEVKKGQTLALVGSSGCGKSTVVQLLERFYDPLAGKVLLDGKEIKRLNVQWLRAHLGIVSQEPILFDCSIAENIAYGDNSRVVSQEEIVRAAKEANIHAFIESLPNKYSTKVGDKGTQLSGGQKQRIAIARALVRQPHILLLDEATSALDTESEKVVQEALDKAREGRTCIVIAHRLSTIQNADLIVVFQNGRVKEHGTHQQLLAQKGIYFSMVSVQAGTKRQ
In data set [4] the target is T2, ATP-dependent translocase ABCB1. As to the kind of experiment: Inhibition of P-glycoprotein using ATPase in MDR1 membranes. The class given is functional, cell membranes.
The target in data set [5] is T3, ATP-dependent translocase ABCB1 (Mus musculus, UniProt P21447). Nature of the data set: Inhibition of P-glycoprotein, mouse L-mdr1a expressed in LLC-PK1 epithelial cells using calcein-AM polarisation assay. The class given is functional, cell-based.
T3 sequence (P21447 whole entry): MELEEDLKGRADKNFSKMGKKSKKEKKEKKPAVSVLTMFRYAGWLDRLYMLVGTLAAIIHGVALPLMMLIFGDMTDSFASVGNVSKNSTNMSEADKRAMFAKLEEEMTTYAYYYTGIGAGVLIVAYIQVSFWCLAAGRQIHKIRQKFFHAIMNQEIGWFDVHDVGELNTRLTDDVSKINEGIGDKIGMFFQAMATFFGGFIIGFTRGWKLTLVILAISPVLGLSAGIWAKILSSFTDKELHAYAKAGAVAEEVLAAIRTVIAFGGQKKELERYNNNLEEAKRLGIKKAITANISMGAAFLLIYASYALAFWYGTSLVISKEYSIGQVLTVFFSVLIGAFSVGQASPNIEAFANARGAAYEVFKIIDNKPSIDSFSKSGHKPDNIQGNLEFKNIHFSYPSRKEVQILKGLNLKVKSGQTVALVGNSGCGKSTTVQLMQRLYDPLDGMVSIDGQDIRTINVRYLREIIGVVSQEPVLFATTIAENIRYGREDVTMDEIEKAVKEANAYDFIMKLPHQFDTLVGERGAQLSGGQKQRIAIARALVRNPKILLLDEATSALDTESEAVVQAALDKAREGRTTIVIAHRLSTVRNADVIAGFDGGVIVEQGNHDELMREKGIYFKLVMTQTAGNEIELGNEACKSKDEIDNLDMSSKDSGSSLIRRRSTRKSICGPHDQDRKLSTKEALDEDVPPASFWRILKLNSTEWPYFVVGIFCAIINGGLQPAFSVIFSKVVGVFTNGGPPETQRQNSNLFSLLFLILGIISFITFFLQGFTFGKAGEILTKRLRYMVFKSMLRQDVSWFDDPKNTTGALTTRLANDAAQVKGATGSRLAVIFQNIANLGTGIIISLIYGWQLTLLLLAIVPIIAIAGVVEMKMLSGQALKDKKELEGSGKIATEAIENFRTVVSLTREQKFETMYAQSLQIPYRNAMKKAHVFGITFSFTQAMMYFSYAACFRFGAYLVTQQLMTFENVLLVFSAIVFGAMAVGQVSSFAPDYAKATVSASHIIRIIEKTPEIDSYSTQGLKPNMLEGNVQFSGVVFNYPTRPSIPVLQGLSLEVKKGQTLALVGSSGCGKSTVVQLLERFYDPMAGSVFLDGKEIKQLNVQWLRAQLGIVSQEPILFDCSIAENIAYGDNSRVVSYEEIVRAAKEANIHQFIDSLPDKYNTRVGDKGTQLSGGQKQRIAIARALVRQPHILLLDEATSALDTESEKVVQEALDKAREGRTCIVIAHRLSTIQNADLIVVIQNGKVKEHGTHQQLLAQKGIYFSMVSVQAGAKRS
The target in data set [6] is T3, ATP-dependent translocase ABCB1. Nature of the data set: TP_TRANSPORTER: inhibition of Calcein-AM efflux in Mdr1a-expressing LLC-PK1 cells. The data set is classed as functional, cell-based.
The target in data set [7] is T1, ATP-dependent translocase ABCB1. As to the kind of experiment: TP_TRANSPORTER: inhibition of Calcein-AM efflux in Mdr1b-expressing LLC-PK1 cells. The data set is classed as functional, cell-based.
Data set [8] concerns the target T2, ATP-dependent translocase ABCB1. As to the kind of experiment: TP_TRANSPORTER: inhibition of Rhodamine 123 efflux in Caco-2 cells. The data set is classed as functional, cell-based. The arrangement: concentration or dose not given beside the values.
Data set [9] shares this target. As to the kind of experiment: Inhibition of P-glycoprotein, human L-MDR1 expressed in LLC-PK1 epithelial cells using calcein-AM polarisation assay. The class given is functional, cell-based.
For data set [10] the target is unchanged. As to the kind of experiment: TP_TRANSPORTER: inhibition of Calcein-AM efflux in MDR1-expressing LLC-PK1 cells. The data set is classed as functional, cell-based.

T1 sequence (P06795 whole entry): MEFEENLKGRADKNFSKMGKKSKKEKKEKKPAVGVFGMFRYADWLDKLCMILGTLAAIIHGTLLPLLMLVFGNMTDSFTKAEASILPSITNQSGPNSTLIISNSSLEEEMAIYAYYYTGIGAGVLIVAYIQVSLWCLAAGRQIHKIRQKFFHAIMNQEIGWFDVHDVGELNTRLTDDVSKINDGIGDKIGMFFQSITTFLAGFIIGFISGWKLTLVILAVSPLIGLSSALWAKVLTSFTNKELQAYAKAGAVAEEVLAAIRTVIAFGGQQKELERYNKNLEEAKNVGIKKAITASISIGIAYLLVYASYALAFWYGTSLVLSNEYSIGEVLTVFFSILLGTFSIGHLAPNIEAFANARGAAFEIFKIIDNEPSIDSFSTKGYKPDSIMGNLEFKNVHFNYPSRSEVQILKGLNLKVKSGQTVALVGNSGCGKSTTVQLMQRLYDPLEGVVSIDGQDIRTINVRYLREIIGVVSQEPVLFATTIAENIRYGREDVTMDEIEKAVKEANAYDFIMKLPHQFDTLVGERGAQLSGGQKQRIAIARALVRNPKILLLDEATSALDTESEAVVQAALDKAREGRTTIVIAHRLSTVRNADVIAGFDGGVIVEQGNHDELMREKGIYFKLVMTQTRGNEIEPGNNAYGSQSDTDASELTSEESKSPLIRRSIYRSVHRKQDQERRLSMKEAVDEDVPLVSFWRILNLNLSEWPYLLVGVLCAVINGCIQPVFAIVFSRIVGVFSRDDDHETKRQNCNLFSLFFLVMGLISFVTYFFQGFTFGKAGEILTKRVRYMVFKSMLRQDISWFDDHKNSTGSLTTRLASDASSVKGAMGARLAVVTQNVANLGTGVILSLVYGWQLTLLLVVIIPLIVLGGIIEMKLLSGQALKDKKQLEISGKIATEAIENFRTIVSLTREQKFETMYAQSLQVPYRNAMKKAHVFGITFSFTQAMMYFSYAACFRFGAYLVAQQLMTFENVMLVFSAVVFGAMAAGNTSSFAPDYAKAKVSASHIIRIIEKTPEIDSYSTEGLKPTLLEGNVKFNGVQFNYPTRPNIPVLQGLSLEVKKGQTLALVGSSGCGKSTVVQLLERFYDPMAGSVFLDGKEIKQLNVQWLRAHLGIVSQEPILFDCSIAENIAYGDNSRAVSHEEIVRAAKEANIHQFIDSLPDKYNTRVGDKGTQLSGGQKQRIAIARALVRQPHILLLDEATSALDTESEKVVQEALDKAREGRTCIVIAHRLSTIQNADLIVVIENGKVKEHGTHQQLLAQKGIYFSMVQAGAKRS

As for `COc1ccc(CCN2CCC(Nc3nc4ccccc4n3Cc3ccc(F)cc3)CC2)cc1` [ASTEMIZOLE], the logP in data set [1] (read-out: logP) was 5.7. Besides, the IC50 in data set [2] is 1.7 µM; in [5], 1.3 µM; in data set [6], 1.3 µM; in data set [7] it was 1.7 µM. In data set [3], this compound showed an Inhibition of 39%. The Activity worked out at 18 nmol/min/mg in data set [4] and 39% in data set [8].
On to `Clc1ccccc1C(c1ccccc1)(c1ccccc1)n1ccnc1` [CLOTRIMAZOLE], for which the logP in [1] (read-out: logP) came out at 5.3. The IC50 in data set [2] is 3.5 µM; in data set [5], 4.8 µM; in data set [6] it was 4.8 µM; in [7] it was 3.5 µM. The Inhibition in data set [3] was found to be 29%. Moreover, the results for the Activity in data set [4] and in data set [8] were 7.5 nmol/min/mg and 29%, respectively.
As for `COc1cc2c(c(OC)c1OC)-c1ccc(OC)c(=O)cc1[C@@H](NC(C)=O)CC2` [COLCHICINE], the concentration for half-maximal inhibition (IC50) in data set [9], in data set [2], in [10], in [5], in data set [6] and in data set [7] was above 50 µM throughout. In [3], this compound gave an Inhibition of 8%. Besides, the Activity was found to be 0.1 nmol/min/mg in data set [4] and 8% in data set [8].
Consider `C[C@@H]1C[C@H]2[C@@H]3CCC4=CC(=O)C=C[C@]4(C)[C@@]3(F)[C@@H](O)C[C@]2(C)[C@@]1(O)C(=O)CO` [DEXAMETHASONE], for which the IC50 in [9], in [2], in data set [10], in [5], in data set [6] and in data set [7] was above 50 µM throughout. In addition, the logP in data set [1] (read-out: logP) turned out to be 1.7. Further, the Inhibition in data set [3] was 0%. The Activity stood at 4 nmol/min/mg in [4] and 0% in data set [8].
`COCC(=O)O[C@]1(CCN(C)CCCc2nc3ccccc3[nH]2)CCc2cc(F)ccc2[C@@H]1C(C)C` [MIBEFRADIL]: the logP in data set [1] was 6.2. Also, the IC50 in data set [2] was 10 µM; in data set [5], 7.4 µM; in data set [6], 7.4 µM; in data set [7], 10 µM. Moreover, the Inhibition in data set [3] is given as 60%. Moreover, the Activity in data set [4] came to 8.9 nmol/min/mg; in data set [8] it was 60%.
Take `Clc1ccc(COC(Cn2ccnc2)c2ccc(Cl)cc2Cl)c(Cl)c1` (configuration not stated) [MICONAZOLE]: the logP in data set [1] (read-out: logP) amounted to 5.8. The Inhibition in data set [3] is 22%. The Activity in data set [4] came to 1 nmol/min/mg; in [8], 22%. The IC50 in data set [5] and in data set [6] was 7.8 µM throughout.
Take `CN/C(=C\[N+](=O)[O-])NCCSCc1ccc(CN(C)C)o1` [RANITIDINE]: the IC50 in [9], in [2] and in [5] was above 50 µM throughout. For the same compound, the lipophilicity (logP) in data set [1] (read-out: logP) came to 0.6. Besides, the Inhibition in data set [3] turned out to be 0%. Also, in data set [4], the Activity was -2.4 nmol/min/mg.
For `CNC(=C[N+](=O)[O-])NCCSCc1ccc(CN(C)C)o1` [RANITIDINE], the IC50 in data set [10], in data set [6] and in [7] was above 50 µM each time. In data set [8], this compound registered an Activity of 0%.
`CC[C@]1(O)C[C@@H]2CN(CCc3c([nH]c4ccccc34)[C@@](C(=O)OC)(c3cc4c(cc3OC)N(C)[C@H]3[C@@](O)(C(=O)OC)[C@H](OC(C)=O)[C@]5(CC)C=CCN6CC[C@]43[C@@H]65)C2)C1` [VINBLASTINE]: the lipophilicity (logP) in data set [1] amounted to 5.2. Besides, the IC50 was 8 µM in data set [2], above 50 µM in data set [5], above 50 µM in data set [6] and 8 µM in [7]. The compound further gave an Inhibition in data set [3] of 75%. Further, the Activity in data set [4] is 33 nmol/min/mg; in [8] it was 75%.

Source of the values: ChEMBL document CHEMBL1136781, “Comparison of in vitro P-glycoprotein screening assays: recommendations for their use in drug discovery” (J Med Chem, 2003).
